Test results taken from US9416134B2 (Signal Pharmaceuticals, LLC, priority 2014, dated 2016).
Converted amounts (≈) assume the structure as drawn.

Tests used:
[1] = Feasibility study on Form 1 (solubility in freeze-drying solvent mixtures); type: physicochemical; settings: thermodynamic from solid
Experimental: The freeze drying experiments were performed in 1.8 ml vials. Approximately 20 mg of starting material were weight in a HPLC vial and dissolved in five different solvent mixtures. […] These two experimental samples were freeze-dried in liquid nitrogen, followed by placing the vials in a freeze-dryer for 24 hours. The obtained solid was then harvested and analyzed by XRPD and digital imaging.
Grinding experiments were performed in stainless steel grinding vials, containing 2 stainless steel grinding balls and a frequency of 30 Hz. Following the experiments, XRPD analysis was performed to assess the crystallinity of the materials.

[2] = Water solubility of Form 1 (observation from slurry experiment in water); type: physicochemical
Experimental: After the slurry time, the solids were separated from the solutions by centrifugation, harvested wet and analyzed by XRPD and digital imaging. The solids were then exposed to accelerated aging conditions (2 days at 40° C./75% RH), followed by XRPD re-analysis.
The slurry experiment in water for two weeks at room temperature produced the anhydrous starting material, Form 1.

- solubility ([1]; aqueous with cosolvent or surfactant or cyclodextrin, THF/Water (50/50), 25.1 mg in 1000 μL, not dissolved): < 25 mg/mL
- solubility ([1]; organic solvent or mixture, Ethanol/water (90/10), 24.2 mg in 400 μL, not dissolved): < 60 mg/mL
- solubility ([1]; organic solvent or mixture, TFE/water (90/10), 20.7 mg in 1000 μL, dissolved): 21 mg/mL (≈ 62.4 mM)
- solubility ([1]; organic solvent or mixture, TFE, 21.9 mg in 1000 μL, dissolved): 22 mg/mL (≈ 65.4 mM)
- solubility ([1]; organic solvent or mixture, THF/water (90/10), 24.8 mg in 1000 μL, not dissolved): < 25 mg/mL
- Solubility in water [2]: practically insoluble
SMILES: CCN1C(=O)CNc2ncc(-c3ccc(-c4nc[nH]n4)nc3C)nc21 [Form 1, 1-ethyl-7-(2-methyl-6-(1H-1,2,4-triazol-3-yl)pyridin-3-yl)-3,4-dihydropyrazino[2,3-b]pyrazin-2(1H)-one]
